Key:
[1] = tested on: human ventricular trabeculae; assay: Action potential recording and pro-arrhythmic score analysis in human ventricular trabeculae (hVT); settings: for Refractoriness Escape (raw data) / Beat Escape (raw data) / EADs (raw data): n=4 trabeculae;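 for all read-outs here: sharp microelectrode action potential recordings at 37°C in Tyrode-perfused trabeculae, 4 cumulative concentrations each applied 31 min, values averaged over last 30 APs, vehicle 0.1% DMSO as control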
Protocol: Briefly, the human heart was transferred into a dissection vessel containing a cold (4°C), fresh proprietary dissection solution. The heart was maintained completely submerged in dissection solution. Ventricular trabeculae were dissected and transferred to the recording chamber.
Briefly, a single tissue was mounted into the experimental chamber filled with oxygenated Tyrode's external solution. The temperature of the solution was maintained at 37°C with flow rate at 5 mL per minute. The tissue was allowed to equilibrate for 30–60 min with stimulation (3 V, 3 ms) at a frequency of 1.0 Hz. High impedance borosilicate microelectrodes were prepared with a tip resistance of 10–20 MΩ once filled with 3 M KCl. Upon tissue impalement, the membrane potential was allowed to stabilize (typically, around −85 mV). Tissues with resting membrane potentials more positive than −75 mV were rejected. Bipolar stimulation at 1.5x threshold was applied and recordings were performed in continuous mode with sampling at 20 kHz using ADInstruments and LabChart Software.
Interruption of perfusion/oxygenation; (2). Absence of Aps following stimulation at baseline; (3). Time frame of drug exposure not respected; (4). Unstable response to stimulation at baseline; (5). Resting membrane potential (RMP) > −75 mV; 7). Maximal amplitude of AP (AMAX) <70 mV; 8). AP duration at 90% repolarization (APD90) <200 ms or >450 ms.
Experimental Procedure: Each test article was evaluated at 4 concentrations in 4 ventricular trabeculae derived from a minimum of 2 donor hearts. Testing concentrations were chosen based upon human free ETPC, aiming to cover 1–100-fold of human free ETPC. […] Briefly, following stabilization of each tissue, APs were collected and assessed for 31 min in vehicle control solution (Tyrode with 0.1% DMSO) at stimulation frequencies of 1 Hz for 25 min, 2 Hz for 3 min and then 1 Hz for 3 min. Following this vehicle control period, 4 concentrations of a test compound were applied sequentially and cumulatively. Each concentration was applied for 31 min with the same stimulation sequence as in vehicle controls.
For each frequency tested, the last 30 APs acquired at the end of the period were averaged for vehicle controls and for each test article concentration. Analysis at 1 Hz included only the last 30 APs of the initial 25-min incubation period. The following AP parameters and pro-arrhythmia variables were analyzed offline upon the completion of recordings:
• RMP (mV) • AMAX (mV) • AP duration at percent repolarization (APD20, APD30, APD50, APD60, APD90) (ms) • Short term variability analysis of AP duration (STV): Beat-to-beat variability of repolarization was quantified as STV from APD90 Poincare plots over a period of 30 sec.
Compound effects were quantified relative to the data collected during the vehicle control period (see Figure 1). […] Additionally, based on AnaBios historical data, threshold values for changes over baseline control for AP instability, APD alternans, Maximum APD dispersion and ERP (APD) were based upon an effect level of 10%. When applicable, differences were tested for statistical significance using the unpaired Student's t-test. A value of P < 0.05 was considered significant.
AP parameters and pro-arrhythmia variables were combined into a meaningful, single score to assess the pro-arrhythmic risk of a compound at each concentration tested. The pro-arrhythmic potential of compounds at 1 or 2 Hz was determined by assigning a weighted scale to each variable (Table 1).

[2] = human free (unbound) effective therapeutic plasma concentration used to calculate multiples; cited from earlier work
[3] = 2Hz, 0.7-FOLD free ETPC (4.1µM)

Cc1cccc(C)c1OCC(C)N (stereo not shown) [MEXILETINE, Mexiletine]
Refractoriness Escape (raw data) ([1]; 1Hz, 73-FOLD free ETPC (4.1µM)): 0
AMAX (average raw data) [1, 3]: 105
AMAX percentage change compared to vehicle control [1, 3]: -2%
APD30 (average raw data) [1, 3]: 126
APD30 percentage change compared to vehicle control [1, 3]: -7%
APD50 (average raw data) [1, 3]: 172
APD50 percentage change compared to vehicle control [1, 3]: -4%
APD90 (average raw data) [1, 3]: 257
APD90 percentage change compared to vehicle control [1, 3]: -1%
Alternans (average raw data) [1, 3]: 2.02
Alternans percentage change compared to vehicle control [1, 3]: 59%
Beat Escape percentage change compared to vehicle control [1, 3]: 50%
EADs percentage change compared to vehicle control [1, 3]: 0%
ERP (average raw data) [1, 3]: 0.45
ERP percentage change compared to vehicle control [1, 3]: 5%
Max Dispersion (average raw data) [1, 3]: 6.13
Max Dispersion percentage change compared to vehicle control [1, 3]: -14%
RMP (average raw data) [1, 3]: -88
RMP percentage change compared to vehicle control [1, 3]: 0%
Refractoriness Escape percentage change compared to vehicle control [1, 3]: 0%
STV (average raw data) [1, 3]: 1.38
STV percentage change compared to vehicle control [1, 3]: 81%
Triangulation (average raw data) [1, 3]: 131
Triangulation percentage change compared to vehicle control [1, 3]: 5%
Beat Escape (raw data) [1, 3]: 2
EADs (raw data) [1, 3]: 0
Refractoriness Escape (raw data) [1, 3]: 0
AMAX (average raw data) ([1]; 2Hz, 7-FOLD free ETPC (4.1µM)): 99
AMAX percentage change compared to vehicle control ([1]; 2Hz, 7-FOLD free ETPC (4.1µM)): -8%
APD30 (average raw data) ([1]; 2Hz, 7-FOLD free ETPC (4.1µM)): 128
APD30 percentage change compared to vehicle control ([1]; 2Hz, 7-FOLD free ETPC (4.1µM)): -6%
APD50 (average raw data) ([1]; 2Hz, 7-FOLD free ETPC (4.1µM)): 167
APD50 percentage change compared to vehicle control ([1]; 2Hz, 7-FOLD free ETPC (4.1µM)): -8%
APD90 (average raw data) ([1]; 2Hz, 7-FOLD free ETPC (4.1µM)): 255
APD90 percentage change compared to vehicle control ([1]; 2Hz, 7-FOLD free ETPC (4.1µM)): -2%
Alternans (average raw data) ([1]; 2Hz, 7-FOLD free ETPC (4.1µM)): 1.03
Alternans percentage change compared to vehicle control ([1]; 2Hz, 7-FOLD free ETPC (4.1µM)): -19%
Beat Escape percentage change compared to vehicle control ([1]; 2Hz, 7-FOLD free ETPC (4.1µM)): 75%
EADs percentage change compared to vehicle control ([1]; 2Hz, 7-FOLD free ETPC (4.1µM)): 0%
ERP (average raw data) ([1]; 2Hz, 7-FOLD free ETPC (4.1µM)): 0.39
ERP percentage change compared to vehicle control ([1]; 2Hz, 7-FOLD free ETPC (4.1µM)): -9%
Max Dispersion (average raw data) ([1]; 2Hz, 7-FOLD free ETPC (4.1µM)): 4.70
Max Dispersion percentage change compared to vehicle control ([1]; 2Hz, 7-FOLD free ETPC (4.1µM)): -34%
RMP (average raw data) ([1]; 2Hz, 7-FOLD free ETPC (4.1µM)): -89
RMP percentage change compared to vehicle control ([1]; 2Hz, 7-FOLD free ETPC (4.1µM)): 1%
Refractoriness Escape percentage change compared to vehicle control ([1]; 2Hz, 7-FOLD free ETPC (4.1µM)): 0%
STV (average raw data) ([1]; 2Hz, 7-FOLD free ETPC (4.1µM)): 0.76
STV percentage change compared to vehicle control ([1]; 2Hz, 7-FOLD free ETPC (4.1µM)): 3%
Triangulation (average raw data) ([1]; 2Hz, 7-FOLD free ETPC (4.1µM)): 127
Triangulation percentage change compared to vehicle control ([1]; 2Hz, 7-FOLD free ETPC (4.1µM)): 2%
Beat Escape (raw data) ([1]; 2Hz, 7-FOLD free ETPC (4.1µM)): 3
EADs (raw data) ([1]; 2Hz, 7-FOLD free ETPC (4.1µM)): 0
Refractoriness Escape (raw data) ([1]; 2Hz, 7-FOLD free ETPC (4.1µM)): 0
AMAX (average raw data) ([1]; 2Hz, 24-FOLD free ETPC (4.1µM)): 90
AMAX percentage change compared to vehicle control ([1]; 2Hz, 24-FOLD free ETPC (4.1µM)): -16%
APD30 (average raw data) ([1]; 2Hz, 24-FOLD free ETPC (4.1µM)): 129
APD30 percentage change compared to vehicle control ([1]; 2Hz, 24-FOLD free ETPC (4.1µM)): -4%
APD50 (average raw data) ([1]; 2Hz, 24-FOLD free ETPC (4.1µM)): 169
APD50 percentage change compared to vehicle control ([1]; 2Hz, 24-FOLD free ETPC (4.1µM)): -7%
APD90 (average raw data) ([1]; 2Hz, 24-FOLD free ETPC (4.1µM)): 269
APD90 percentage change compared to vehicle control ([1]; 2Hz, 24-FOLD free ETPC (4.1µM)): 3%
Alternans (average raw data) ([1]; 2Hz, 24-FOLD free ETPC (4.1µM)): 30.91
Alternans percentage change compared to vehicle control ([1]; 2Hz, 24-FOLD free ETPC (4.1µM)): 2347%
EADs percentage change compared to vehicle control ([1]; 2Hz, 24-FOLD free ETPC (4.1µM)): 0%
ERP (average raw data) ([1]; 2Hz, 24-FOLD free ETPC (4.1µM)): 0.37
ERP percentage change compared to vehicle control ([1]; 2Hz, 24-FOLD free ETPC (4.1µM)): -13%
Max Dispersion (average raw data) ([1]; 2Hz, 24-FOLD free ETPC (4.1µM)): 59.90
Max Dispersion percentage change compared to vehicle control ([1]; 2Hz, 24-FOLD free ETPC (4.1µM)): 741%
RMP (average raw data) ([1]; 2Hz, 24-FOLD free ETPC (4.1µM)): -88
RMP percentage change compared to vehicle control ([1]; 2Hz, 24-FOLD free ETPC (4.1µM)): 0%
Refractoriness Escape percentage change compared to vehicle control ([1]; 2Hz, 24-FOLD free ETPC (4.1µM)): 0%
STV (average raw data) ([1]; 2Hz, 24-FOLD free ETPC (4.1µM)): 21.80
STV percentage change compared to vehicle control ([1]; 2Hz, 24-FOLD free ETPC (4.1µM)): 2766%
Triangulation (average raw data) ([1]; 2Hz, 24-FOLD free ETPC (4.1µM)): 139
Triangulation percentage change compared to vehicle control ([1]; 2Hz, 24-FOLD free ETPC (4.1µM)): 11%
Beat Escape (raw data) ([1]; 2Hz, 24-FOLD free ETPC (4.1µM)): 4
EADs (raw data) ([1]; 2Hz, 24-FOLD free ETPC (4.1µM)): 0
Refractoriness Escape (raw data) ([1]; 2Hz, 24-FOLD free ETPC (4.1µM)): 0
AMAX (average raw data) ([1]; 2Hz, 73-FOLD free ETPC (4.1µM)): 43
AMAX percentage change compared to vehicle control ([1]; 2Hz, 73-FOLD free ETPC (4.1µM)): -60%
APD30 (average raw data) ([1]; 2Hz, 73-FOLD free ETPC (4.1µM)): 82
APD30 percentage change compared to vehicle control ([1]; 2Hz, 73-FOLD free ETPC (4.1µM)): -30%
APD50 (average raw data) ([1]; 2Hz, 73-FOLD free ETPC (4.1µM)): 118
APD50 percentage change compared to vehicle control ([1]; 2Hz, 73-FOLD free ETPC (4.1µM)): -30%
APD90 (average raw data) ([1]; 2Hz, 73-FOLD free ETPC (4.1µM)): 234
APD90 percentage change compared to vehicle control ([1]; 2Hz, 73-FOLD free ETPC (4.1µM)): -3%
Alternans (average raw data) ([1]; 2Hz, 73-FOLD free ETPC (4.1µM)): 21.46
Alternans percentage change compared to vehicle control ([1]; 2Hz, 73-FOLD free ETPC (4.1µM)): 1598%
EADs percentage change compared to vehicle control ([1]; 2Hz, 73-FOLD free ETPC (4.1µM)): 0%
ERP (average raw data) ([1]; 2Hz, 73-FOLD free ETPC (4.1µM)): 0.45
ERP percentage change compared to vehicle control ([1]; 2Hz, 73-FOLD free ETPC (4.1µM)): 5%
Max Dispersion (average raw data) ([1]; 2Hz, 73-FOLD free ETPC (4.1µM)): 35.75
Max Dispersion percentage change compared to vehicle control ([1]; 2Hz, 73-FOLD free ETPC (4.1µM)): 402%
RMP (average raw data) ([1]; 2Hz, 73-FOLD free ETPC (4.1µM)): -68
RMP percentage change compared to vehicle control ([1]; 2Hz, 73-FOLD free ETPC (4.1µM)): -19%
Refractoriness Escape percentage change compared to vehicle control ([1]; 2Hz, 73-FOLD free ETPC (4.1µM)): 0%
STV (average raw data) ([1]; 2Hz, 73-FOLD free ETPC (4.1µM)): 15.46
Triangulation (average raw data) ([1]; 2Hz, 73-FOLD free ETPC (4.1µM)): 152
Triangulation percentage change compared to vehicle control ([1]; 2Hz, 73-FOLD free ETPC (4.1µM)): 25%
Beat Escape (raw data) ([1]; 2Hz, 73-FOLD free ETPC (4.1µM)): 2
EADs (raw data) ([1]; 2Hz, 73-FOLD free ETPC (4.1µM)): 0
Refractoriness Escape (raw data) ([1]; 2Hz, 73-FOLD free ETPC (4.1µM)): 0
Free ETPC [2]: 4.1 µM

— paper PMC5760531, “Action Potential Recording and Pro-arrhythmia Risk Analysis in Human Ventricular Trabeculae” (Frontiers in Physiology, 2018)
